Values joined by “and” are separate entries in the source; they are usually repeats but may differ in a detail not shown here. Identical values can stand only once. Like-named read-outs stand apart in the source and are kept apart here.
What was measured:
[1] = tested on: influenza virus strain A/chicken/Kurgan/Russia/02/05 (H5N1); design: species or system white mice; conditions: mouse, in vivo, po
[2] = tested on: severe acute respiratory syndrome virus; design: species or system Syrian hamsters; conditions: hamster, in vivo, po
[3] = Acute toxicity study of glutaryl histamine; conditions: male, nonlinear white (outbred), mouse, in vivo, po

## CCOC(=O)c1c(CSc2ccccc2)n(C)c2cc(Br)c(O)c(CN(C)C)c12 [Arbidol ®, reference compound]
[1]; 135 mg/kg
  Death rate: 15/20 and 18/20
  Increase of mean lifetime Δ: 1.4 days and 1.1 days
  Mean lifetime of animals in the group: 8.0 days and 7.2 days

## O=C(O)CCCC(=O)NCCc1c[nH]cn1 [glutaryl histamine]
[1]; 5 mg/kg
  Death rate: 12/20
  Deaths: 11
  Increase of mean lifetime Δ: 2.7 days and 1.8 days
  Mean lifetime of animals in the group: 10.9 days and 10.0 days
  Protective efficacy against death, %: 45% and 40%
[1]; 15 mg/kg
  Death rate: 12/20 and 13/20
  Increase of mean lifetime Δ: 2.4 days and 2.0 days
  Mean lifetime of animals in the group: 11.0 days and 8.7 days
  Protective efficacy against death, %: 40% and 35%
[2]; 5 mg/kg
  Therapeutic efficacy, %: 20.0% and 30.0%
  Virus yield in the lungs at peak of infection (on day 4) 1 g PFU/ml: 7.5 1 g PFU/ml and 7.0 1 g PFU/ml
  Virus yield in the lungs at peak of infection (on day 4) Δ, 1 g: 0.8 1 g and 0.9 1 g
[2]; 15 mg/kg
  Therapeutic efficacy, %: 40%
  Virus yield in the lungs at peak of infection (on day 4) 1 g PFU/ml: 3.8 1 g PFU/ml
  Virus yield in the lungs at peak of infection (on day 4) Δ, 1 g: 2.4 1 g
[3]
  LD50: > 10000 mg/kg

From patent publication US9504673B2, “Agent for the prophylaxis and treatment of highly pathogenic infectious diseases” (priority 2009, dated 2016)
